The source of these data is the NIST ThermoML archive (doi:10.1016/j.fluid.2006.10.024).

Numbers after ± are expanded uncertainties.

For the data set the following is noted: Liquid; for mass density: 101.33 kPa.

`C1COCCO1` [1,4-dioxane]: the mass density (298.15 K) came to 1027.87 ± 0.71 kg/m3, the mass density (313.15 K) was determined as 1010.69 ± 0.63 kg/m3 and the mass density (328.15 K) is listed as 993.75 ± 0.6 kg/m3. The “vapor or sublimation pressure” value (298.15 K) was found to be 4.9 ± 0.12 kPa, the “vapor or sublimation pressure” value (313.15 K) is on record as 10.17 ± 0.16 kPa and the “vapor or sublimation pressure” value (328.15 K) turned out to be 19.54 ± 0.23 kPa.

Consider `C1CCOCC1` [tetrahydropyran], for which the mass density turned out to be 878.81 ± 1 kg/m3 (298.15 K), 863.67 ± 1.1 kg/m3 (313.15 K) and 848.29 ± 1.1 kg/m3 (328.15 K). The “vapor or sublimation pressure” value runs as follows: (298.15 K) 9.56 ± 0.15 kPa; (313.15 K) 18.66 ± 0.23 kPa; (328.15 K) 33.95 ± 0.35 kPa.

As for `C1CCOC1` [tetrahydrofuran], the mass density is recorded as 881.95 ± 0.45 kg/m3 (298.15 K), 865.36 ± 0.49 kg/m3 (313.15 K) and 848.68 ± 0.52 kg/m3 (328.15 K). In addition, the “vapor or sublimation pressure” value (298.15 K) is 21.61 ± 0.25 kPa, the “vapor or sublimation pressure” value (313.15 K) came to 40.62 ± 0.4 kPa and the “vapor or sublimation pressure” value (328.15 K) was 70.61 ± 0.63 kPa.

`CCCCCCl` [1-chloropentane]: the mass density is, setting by setting: (298.15 K) 877 ± 1 kg/m3; (313.15 K) 861.52 ± 1.1 kg/m3; (328.15 K) 846.33 ± 1.1 kg/m3. For the same compound, the “vapor or sublimation pressure” value (298.15 K) was 4.055 ± 0.11 kPa, the “vapor or sublimation pressure” value (313.15 K) is recorded as 8.45 ± 0.14 kPa and the “vapor or sublimation pressure” value (328.15 K) is listed as 16.4 ± 0.21 kPa.

For `C1COCO1` [1,3-dioxolane], the mass density (298.15 K) is on record as 1058.62 ± 0.85 kg/m3, the mass density (313.15 K) was 1039.88 ± 0.76 kg/m3 and the mass density (328.15 K) worked out at 1020.86 ± 0.67 kg/m3. For the same compound, the “vapor or sublimation pressure” value is, setting by setting: (298.15 K) 13.54 ± 0.18 kPa; (313.15 K) 26.83 ± 0.29 kPa; (328.15 K) 49.01 ± 0.47 kPa.
